From patent publication US12012387B2, “Triazine compound and use thereof” (priority 2018, dated 2024)

Key:
[1] = test system: Gram-negative bacteria and Gram-positive bacteria; experiment: Antibacterial activity, MIC over the four strains (GM); type: cell-based; conditions: mean of the MIC values of the four strains
Experimental: To confirm the antibacterial activity, a minimal inhibitory concentration (MIC) value, which is a minimum concentration at which fungus bodies are not divided, was measured. Specifically, the strains disclosed in the following table 1 were purchased, incubated in each medium up to a mid-log phase, diluted to a fungus body concentration of 2×10^5 cells/100 μl, and inoculated into a micro titrate plate (Nunc, USA). […] A control group was treated with melittine by the same method as above, so as to determine an MIC value for each strain.

trypsin = experiment: Stability against protease (radial diffusion assay after trypsin treatment); type: in vitro ADME; conditions: 24 hours after trypsin culture; FIG. 2
Experimental: To confirm the stability against the protease, trypsin degradation was identified by using a radial diffusion assay method after treatment with each of the triazine compounds of the following example. Specifically, the cultured strains (Escherichia coli) were incubated in 10 mL of LB medium at 37° C. for 18 hours, after which 10 μl of the culture fluid was inoculated into 10 mL of fresh BL medium and then further incubated for three hours, so as to obtain bacteria in a mid-logarithmic phase. For the radial diffusion assay method, a bacterial suspension (2×10^6 CFU/mL in LB) was mixed with 0.7% agarose and rapidly dispersed, after which the resulting mixed solution was poured into a 10 cm-long Petri dish. Each 5 μl of the triazine compound solution (10 mg/mL) of the following example was added to 25 μl of trypsin solution (0.2 μg/mL in PBS), and incubated at 37° C. for six hours. A reaction was terminated by freezing with liquid nitrogen, after which each 10 μl was taken, seeded on circular paper having a diameter of 6 mm placed on the Petri dish containing the agarose, and incubated overnight at 37° C. To quantify the inhibitory activity, the clearance zones of bacteria around the circular paper were measured to confirm the antibacterial activity. As a control group, melittine was used.

SMILES: CC[C@H](C)[C@H](NC(=O)CN)C(=O)NCC(=O)N[C@@H](C)C(=O)N[C@H](C(=O)N[C@@H](CC(C)C)C(=O)N[C@@H](CCCCN)C(=O)N[C@H](C(=O)N[C@@H](CC(C)C)C(=O)N[C@H](C(=O)N[C@H](C(=O)NCC(=O)N[C@@H](CC(C)C)C(=O)N1CCC[C@H]1C(=O)N[C@@H](C)C(=O)N[C@@H](CC(C)C)C(=O)N[C@H](C(=O)N[C@@H](CO)C(=O)N[C@@H](Cc1c[nH]c2ccccc12)C(=O)N[C@H](C(=O)N[C@@H](CCCCN)C(=O)N[C@@H](CCCNC(=N)N)C(=O)N[C@@H](CCCCN)C(=O)N[C@@H](CCCNC(=N)N)C(=O)N[C@@H](CCC(N)=O)C(=O)N[C@@H](CCC(N)=O)C(N)=O)[C@@H](C)CC)[C@@H](C)CC)[C@@H](C)O)[C@@H](C)O)C(C)C)C(C)C [Melittin]
- GM [1]: 3.8 µM
- antibacterial activity against E. coli after trypsin culture (trypsin): remarkable decrease in the antibacterial activity
